Source: patent publication US9180164B2, “Compounds and methods of modulating angiogenesis” (THE CLEVELAND CLINIC FOUNDATION, priority 2011, dated 2015)
Where two headings read alike, the source gives them in different places.

Columns and labels:
[1] = tested on: mouse lung endothelial cells; settings: WT EC, vitronectin
Protocol: Transwell tissue culture inserts were coated with various integrin ligands for 24 h at 4° C. Both WT and DiYF lung endothelial cells were trypsinized and 1×10^5 cells were added into each well. The lower chamber contained varying concentrations of VEGF-A165 (0-20 ng/ml). Cells were allowed to migrate for 12 h and fixed with 3.7% formaldehyde/PBS for 15 min and stained with 0.5% crystal violet. The non-migrated cells adhered to the top surface were removed and three random 10× fields were photographed using Leica inverted phase contrast microscope.

[2] = tested on: mouse lung endothelial cells; settings: 20 ng/ml VEGF, 8 h
Protocol: The formation of vascular tube-like structures by wild type and DiYF mouse lung endothelial cells were assessed on the basement membrane matrix preparation. Six well plates were coated with 0.5 ml of Matrigel according to the manufacturer's instructions. Wild type and DiYF mouse lung endothelial cells were detached from the tissue culture flasks using 20 mM EDTA. Cells were washed twice with sterile 1×PBS and seeded on Matrigel coated plate. Medium was supplemented with or without 20 ng/ml VEGF and further incubated at 37° C. for 8 h. The tube formation was observed using an inverted phase contrast microscope (Leica) and photographs were taken from each well. Using ImagePro software, the degree of tube formation was quantified by measuring the length of tubes in random fields.

VEGFR-2 = molecular target: T1, VEGFR-2 (Mus musculus, UniProt P35918); assay: VEGFR-2 phosphorylation time course in mouse lung endothelial cells; assay type: cell-based; settings: 20 ng/ml VEGF
T1 construct: endogenous in cells; host or cells: primary mouse lung endothelial cells (WT and DiYF mice)
T1 sequence (P35918 20-1345): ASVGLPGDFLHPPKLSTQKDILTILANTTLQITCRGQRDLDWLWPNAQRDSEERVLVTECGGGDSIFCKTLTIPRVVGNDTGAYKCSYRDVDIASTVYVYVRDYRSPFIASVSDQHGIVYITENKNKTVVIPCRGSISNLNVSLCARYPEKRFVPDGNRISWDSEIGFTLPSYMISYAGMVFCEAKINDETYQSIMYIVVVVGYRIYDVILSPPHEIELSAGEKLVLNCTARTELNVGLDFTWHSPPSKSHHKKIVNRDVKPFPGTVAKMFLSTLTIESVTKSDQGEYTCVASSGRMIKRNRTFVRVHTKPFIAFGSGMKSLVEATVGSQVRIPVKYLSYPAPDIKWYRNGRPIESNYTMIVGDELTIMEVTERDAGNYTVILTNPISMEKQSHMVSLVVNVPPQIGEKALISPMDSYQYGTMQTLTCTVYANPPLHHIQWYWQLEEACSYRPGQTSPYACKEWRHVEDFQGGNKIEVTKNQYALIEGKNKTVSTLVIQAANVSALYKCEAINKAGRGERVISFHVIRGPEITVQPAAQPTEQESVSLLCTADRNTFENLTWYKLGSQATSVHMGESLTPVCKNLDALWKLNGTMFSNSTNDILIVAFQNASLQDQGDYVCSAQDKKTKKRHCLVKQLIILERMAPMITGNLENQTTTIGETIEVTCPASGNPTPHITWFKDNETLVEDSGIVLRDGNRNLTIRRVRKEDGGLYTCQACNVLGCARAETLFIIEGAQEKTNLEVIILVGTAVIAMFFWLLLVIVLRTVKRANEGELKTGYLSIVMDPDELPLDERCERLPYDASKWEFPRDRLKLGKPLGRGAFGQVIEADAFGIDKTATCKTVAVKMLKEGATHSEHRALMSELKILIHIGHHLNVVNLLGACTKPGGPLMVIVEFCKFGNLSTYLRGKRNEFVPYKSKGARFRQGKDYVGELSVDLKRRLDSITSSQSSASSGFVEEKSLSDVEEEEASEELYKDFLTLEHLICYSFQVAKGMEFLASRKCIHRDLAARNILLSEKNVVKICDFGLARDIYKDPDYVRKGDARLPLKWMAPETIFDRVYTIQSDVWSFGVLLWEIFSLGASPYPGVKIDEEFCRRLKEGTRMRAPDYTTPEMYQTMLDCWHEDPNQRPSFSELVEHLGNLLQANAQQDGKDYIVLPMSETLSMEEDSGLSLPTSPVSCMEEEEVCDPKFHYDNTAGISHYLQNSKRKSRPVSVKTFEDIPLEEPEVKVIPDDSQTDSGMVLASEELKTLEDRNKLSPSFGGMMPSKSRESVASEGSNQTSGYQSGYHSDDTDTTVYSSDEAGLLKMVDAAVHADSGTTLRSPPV
Protocol: Serum starved wild type and DiYF endothelial cells were also treated with 20 ng/ml VEGF for 0-60 mins. Cell lysates were analyzed by Western blot using anti-integrin β3 [pY^747], anti-integrin [pY^759], anti-p-VEGFR-2, anti-VEGFR-2, anti-p-ERK1/2, anti-ERK1/2, anti-p-Akt, anti-Akt, anti-p-P38MAPK and anti-MAPK antibody. The wild type and DiYF endothelial cells were lysed and equal proteins from total cell lysates were subjected SDS-PAGS and analyzed by western blot using anti-VEGFR-2 and anti-CD-31 antibody.

[3] = tested on: HUVECs (Human Umbilical vascular endothelial cells); assay: Tube formation assay on Matrigel with inhibitory peptide; assay type: cell-based; settings: 8 h
Protocol: The effect of αvβ3/VEGFR2 complex inhibiting peptides in accordance with the present invention on angiogenic function was assessed by tube formation assay on the basement membrane matrix preparation. […] Cells were washed twice with sterile PBS and seeded on Matrigel-coated plates in combination of presence/absence of VEGF and inhibitory peptide. Cells were further incubated at 37° C. for 8 h.

maximum increase in VEGFR-2 phosphorylation over control (VEGFR-2; DiYF EC): 2.5 fold
maximum increase in VEGFR-2 phosphorylation over control (VEGFR-2; WT EC): 6 fold
Substance: VEGF
increase of migration compared to untreated EC ([1]; 5 ng/ml): 1.5 fold
increase of migration compared to untreated EC ([1]; 10 ng/ml): 2.5 fold
increase of migration compared to untreated EC ([1]; 20 ng/ml): 2.9 fold
effect on length of the tubes ([2]; DiYF EC): a little effect
increase in the length of the tubes ([2]; WT EC): about 3 fold
endothelial cell tube formation induced (length of tubes) [3]: at least 450 μm/mm^2
